Test results reported in patent publication US7763615B2, “Ecteinascidin analogs for use as antitumour agents” (priority 2001, dated 2010).

What was measured:
[1] = system: H-MEC-1; assay: Inhibition of cells growth by colorimetric assay (SRB), H-MEC-1; type: cell-based
Outline: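 SRB colorimetric growth assay: 5×10^3 cells/well, 18 h attachment, 48 h continuous compound exposure at 10–10^−8 μg/ml in DMSO/EtOH/PBS. TCA fixation, SRB stain, OD 490 nm; triplicate wells, GI, TGI and LC derived.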

[2] = system: PANC-1; assay: cells; type: cell-based; settings: PANC-1, 48 hours exposure, SRB
Outline: (§1)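 Seeding density 5×10^3 cells/well; attachment 18 h in drug-free medium; exposure 48 h, 10 to 10^−8 μg/ml. Fixation cold TCA 60 min at 4° C, SRB 10 min, absorbance 490 nm.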

[3] = system: K562; assay: cells; type: cell-based; settings: K562, 48 hours exposure, SRB
Outline: as §1

[4] = system: SK-BR3; assay: cells; type: cell-based; settings: SK-BR3, 48 hours exposure, SRB
Outline: as §1

[5] = system: LOVO-DOX; assay: cells; type: cell-based
Outline: as §1

[6] = system: LOVO; assay: cells; type: cell-based; settings: 48 hours exposure, SRB
Outline: as §1

[7] = system: DU145; assay: cells; type: cell-based; settings: DU145, 48 hours exposure, SRB
Outline: as §1

[8] = system: IGROV-ET; assay: cells; type: cell-based; settings: IGROV-ET, 48 hours exposure, SRB
Outline: as §1

[9] = system: A549; assay: cells; type: cell-based; settings: Homo sapiens, A549, 48 h
Outline: as §1

[10] = system: IGROV; assay: cells; type: cell-based; settings: Homo sapiens, 48 h
Outline: as §1

[11] = system: LNCAP; assay: cells; type: cell-based; settings: Homo sapiens, LNCaP, 48 h
Outline: as §1

[12] = system: HT29; assay: cells; type: cell-based
Outline: as §1

[13] = system: MEL-28; assay: cells; type: cell-based; settings: MEL-28, 48 hours exposure, SRB
Outline: as §1

[14] = system: (HEPG2); settings: human, 24 h, 30 μM
[15] = molecular target: CYP2D6 (Homo sapiens, UniProt P10635); assay: in vitro; settings: CYP2D6 (% inhibition)
Experimental: For CYP2D6 inhibition assay, the compound are tested at 10 μM in duplicate with a 0.25% final concentration of both methanol and acetonitrile in presence of the fluorescent substrate AMMC (3-[2-N,N-diethyl-N-methylammonium)ethyl]-7-methoxy-4-methylcoumarin) at the concentration of 1.5 μM). The conversion of the AMMC in AHMC (3-[2-N,N-diethyl-N-methylammonium)ethyl]-7-hydroxy-4-methylcoumarin) is determined spectrofluorimetry after incubation with the enzyme during 450 min at 37° C.
For both assays, the fluorescent intensity measured at t=0 is subtracted from that measured after the appropriate incubation time. The ratio of signal-to-noise is calculated by comparing the fluorescence in incubations containing the test compound to the control samples containing the same solvent vehicle. The percent of control activity is calculated and reported as percent inhibition.

[16] = system: NRK-52E, normal rat kidney cells; settings: 24 h
Experimental: In order to assess the cytotoxicity of the drugs to normal cells, we used 96 well plates plated at a density of 5000 cells per well (except for the FDC-P1 which were plated at 12,000 cells per well) with normal cell lines (ATCC, Table 1) maintained as per the directions of the ATCC: AML-12, normal mouse liver cells; NRK-52E, normal rat kidney cells; L8, normal rat skeletal muscle cells; FDC-P1, normal mouse myelogeous stem cells; and H9c2 (2-1), normal rat cardiac muscle cells. The cells in each plate were permitted to settle overnight before adding the test drug.
To each well (100 μl medium) 10 μl of drug in media was added at varying concentrations (1×10-10-0.01 mg/ml final concentration) and further incubated overnight at 37° C. with 5% CO2. After 24 h the following assays were performed. All experiments were repeated at least 3 times and were assayed in duplicate.
MTS assay (CellTiter 96 aqueous) was performed according to the manufacturer's (Promega) directions (for all cell types). Cell viability (mitochondrial activity) is determined via enzymatic conversion of the formazan substrate.

[17] = system: AML-12, normal mouse liver cells; settings: 24 h
[18] = system: L8, normal rat skeletal muscle cells; settings: 24 h
[19] = system: FDC-P1, normal mouse myelogeous stem cells; settings: 24 h
[20] = physchem; settings: pH 7.4, log D n-Octanol-Dulbecco's PBS pH 7.4
Experimental: The measurement of partition coefficient was evaluated based on a miniaturized shake-flask procedure. Buffer (Dulbecco's PBS, pH 7.40) was used as the aqueous phase. The tested compound was dissolved in DMSO, at the concentration of 100 μM. The final DMSO concentration (1%.) during the octanol-buffer partitioning are very low to avoid bias on the partitioning. The amount of compound in the buffer phase was determined by HPLC with photodiode array detection after an equilibration phase of 60 min. The amount of compound in the octanol phase is calculated by subtraction of the amount of compound in buffer from the total amount of compound, which is determined from a calibration sample.
Log D is calculated as the Log10 of the amount of compound in the octanol phase divided by the amount of compound in the buffer phase. The effective range of the log D microassay is approximately −0.5 to +4.5.

[21] = molecular target: CYP3A4 (Homo sapiens, UniProt P08684); settings: 30 min, 10 µM
[22] = system: H9c2 (2-1), normal rat cardiac muscle cells; settings: 24 h
[23] = s9, 60 min, 1 μM
[24] = system: SK-OV3; assay: Inhibition of cells growth by colorimetric assay (SRB), SK-OV3; type: cell-based
Outline: as §1

[25] = H-MEC-1, 48 hours exposure, SRB

Sequence of CYP3A4 (P08684 whole entry): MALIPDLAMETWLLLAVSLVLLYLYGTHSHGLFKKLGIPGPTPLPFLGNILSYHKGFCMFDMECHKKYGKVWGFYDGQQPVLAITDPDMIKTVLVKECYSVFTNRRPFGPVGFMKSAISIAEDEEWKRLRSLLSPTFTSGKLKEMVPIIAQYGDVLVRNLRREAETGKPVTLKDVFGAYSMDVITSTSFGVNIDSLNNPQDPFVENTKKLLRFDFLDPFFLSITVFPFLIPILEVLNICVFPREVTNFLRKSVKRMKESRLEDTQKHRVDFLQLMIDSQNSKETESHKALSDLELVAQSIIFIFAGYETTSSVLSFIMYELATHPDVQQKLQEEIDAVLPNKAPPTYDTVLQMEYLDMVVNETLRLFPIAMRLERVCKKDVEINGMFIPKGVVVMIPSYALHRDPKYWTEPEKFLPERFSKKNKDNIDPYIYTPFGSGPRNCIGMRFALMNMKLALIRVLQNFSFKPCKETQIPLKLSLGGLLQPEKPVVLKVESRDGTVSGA
Sequence of CYP2D6 (P10635 whole entry): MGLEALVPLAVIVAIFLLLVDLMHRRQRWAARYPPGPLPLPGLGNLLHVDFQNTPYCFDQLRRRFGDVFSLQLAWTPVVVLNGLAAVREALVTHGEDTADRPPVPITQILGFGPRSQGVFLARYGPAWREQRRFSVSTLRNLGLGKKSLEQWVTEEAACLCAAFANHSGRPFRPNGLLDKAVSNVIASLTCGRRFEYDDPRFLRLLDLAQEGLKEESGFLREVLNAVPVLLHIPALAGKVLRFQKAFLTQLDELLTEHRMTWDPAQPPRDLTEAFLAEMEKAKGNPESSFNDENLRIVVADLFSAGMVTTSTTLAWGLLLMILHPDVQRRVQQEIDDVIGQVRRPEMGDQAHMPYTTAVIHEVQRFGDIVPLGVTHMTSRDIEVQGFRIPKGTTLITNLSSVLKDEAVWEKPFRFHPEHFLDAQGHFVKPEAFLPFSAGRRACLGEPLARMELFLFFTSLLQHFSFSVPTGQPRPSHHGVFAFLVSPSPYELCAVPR

COc1c(C)cc2c(c1O)[C@@H]1C3[C@@H]4SC[C@]5(NC(C)Cc6c5[nH]c5ccc(F)cc65)C(=O)COC[C@@H](c5c6c(c(C)c(OC(C)=O)c54)OCO6)N3[C@@H](O)[C@H](C2)N1C (some centres unmarked) [Compound 41]
GI50 [1, 25]: 4.68 nM | TGI [1, 25]: 4.08E−08 Molar | CC50 ([1]; Homo sapiens, HMEC-1, 48 h, read-out: LC50, H-MEC-1, 48 hours exposure, SRB): 12700 nM | GI50 ([2]; Homo sapiens, PANC-1, 48 h): 10.8 nM | IC (TGI) ([2]; Homo sapiens, PANC-1, 48 h): 48.9 nM | CC50 ([2]; read-out: LC50): 506 nM | GI50 [3]: 0.11 nM | TGI [3]: 2.19E−09 Molar | CC50 ([3]; read-out: LC50): 5.57 nM | GI50 [4]: 2.33 nM | TGI [4]: 6.86E−09 Molar | CC50 ([4]; read-out: LC50): 36.3 nM | GI50 ([5]; Homo sapiens, 48 h, LOVO-DOX, 48 hours exposure, SRB): 30.5 nM | CC50 ([5]; Homo sapiens, 48 h, read-out: LC50, LOVO-DOX, 48 hours exposure, SRB): 12700 nM | TGI ([5]; LOVO-DOX, 48 hours exposure, SRB): 9.99E−08 Molar | IC (TGI) ([6]; Homo sapiens, LoVo, 48 h): 24.4 nM | GI50 ([6]; LOVO): 4.42 nM | CC50 ([6]; read-out: LC50, LOVO): 410 nM | GI50 ([7]; Homo sapiens, DU-145, 48 h): 3.49 nM | IC (TGI) ([7]; Homo sapiens, DU-145, 48 h): 8.37 nM | CC50 ([7]; read-out: LC50): 9900 nM | GI50 [8]: 3.14 nM | TGI [8]: 2.00E−08 Molar | CC50 ([8]; read-out: LC50): 3860 nM | GI50 ([9]; A549, 48 hours exposure, SRB, read-out: GI50): 19.8 nM | IC (TGI) ([9]; A549, 48 hours exposure, SRB, read-out: TGI): 46.8 nM | CC50 ([9]; read-out: LC50, A549, 48 hours exposure, SRB): 110 nM | GI50 ([10]; 48 hours exposure, SRB): 1.94 nM | IC (TGI) ([10]; 48 hours exposure, SRB): 4.14 nM | CC50 ([10]; read-out: LC50, IGROV, 48 hours exposure, SRB): 8.86 nM | GI50 ([11]; 48 hours exposure, SRB): 2.62 nM | IC (TGI) ([11]; 48 hours exposure, SRB): 5.17 nM | CC50 ([11]; read-out: LC50, LNCAP, 48 hours exposure, SRB): 10.2 nM | GI50 ([12]; HT29, 48 hours exposure, SRB): 5.66 nM | TGI ([12]; HT29, 48 hours exposure, SRB): 6.07E−08 Molar | CC50 ([12]; Homo sapiens, HT-29, 48 h, read-out: LC50, HT29, 48 hours exposure, SRB): 12700 nM | GI50 [13]: 6.72 nM | TGI [13]: 2.66E−08 Molar | CC50 ([13]; read-out: LC50): 102 nM | Cell Viability (% inhibition) [14]: 16 % inhibition | inhibition at 450 min, 10 µM [15]: 16% | Kidney [16]: 1.89E−08 | Liver [17]: 6.30E−08 | Skeletal [18]: 2.39E−07 | Myelo [19]: 1.39E−07 | logD at 60 min [20]: > 4.5 | CYP3A4 (% inhibition) [21]: 22 % inhibition | Heart [22]: 3.49E−08 | Solubility Dulbecco's PBS pH 7.4: <1 est μM | Human Liver S9 Metabolic Stability (% remaining) [23]: 7 % remaining | GI50 ([24]; Homo sapiens, SK-OV-3, 48 h, SK-OV3, 48 hours exposure, SRB): 3.85 nM | CC50 ([24]; Homo sapiens, SK-OV-3, 48 h, read-out: LC50, SK-OV3, 48 hours exposure, SRB): 12700 nM | TGI ([24]; SK-OV3, 48 hours exposure, SRB): 9.82E−09 Molar
